Measured values taken from patent US11279737B2, “Antimicrobial peptide variants and uses thereof” (ANTINBIO, INC., priority 2019, dated 2022).
Converted amounts (≈) assume the structure as drawn. Where a SMILES comes first, the peptide text is derived from it. Bridges are numbered along the chain shown (N, C = ends).

Columns and labels:
human erythrocytes = experiment: hemolytic assay; format: cell-based; conditions: peptide 0.5-500 μg/ml, 37° C., 60 minutes, FIG. 2
Description: For the hemolysis assays, human erythrocytes were obtained from healthy donors, washed 3 times using sterilized PBS and re-suspended to a concentration of 2% (v/v) with PBS. The hegrisin, HCN2016-01 peptide, and plectasin (control) were diluted to concentrations of 500, 250, 125, 62.5, 32, 16, 8, 4, 2, 1, and 0.5 μg/ml. A 100 μL solution of each peptide and a 100 μL suspension of red blood cells were mixed and added to the wells of a 96-well plate. PBS was used as negative control and Triton X-100 was used as a positive control.
The samples were incubated at 37° C. for 60 minutes and gently stirred during the incubation period. Then, the samples were centrifuged at 2000 rpm for 5 minutes. A total of 100 μL of the supernatant in each well was transferred to a new 96-well plate and absorbance was measured at 490 nm using a microplate reader (Molecular Devices, USA).
For hemolysis assays, human erythrocytes were obtained from healthy donors, washed 3 times using sterilized PBS, and re-suspended to a concentration of 2% (v/v) with PBS. The HCN2016-01 peptide (SEQ ID NO: 2) and plectasin (control) were diluted to concentrations of 500; 250; 125; 62.5; 32; 16; 8; 4; 2; 1; and 0.5 μg/ml. A 100 μL of each peptide solution was mixed with a 100 μL solution of a red blood cell suspension and added to separate wells of a 96-well plate. PBS was used as negative control and Triton X-100 was used as a positive control. The samples were incubated at 37° C. for 60 minutes and gently stirred during the incubation period. The samples were then centrifuged at 2000 rpm for 5 minutes. A total of 100 μL of the supernatant in each well was transferred to a new 96-well plate and absorbance was measured at 490 nm using a microplate reader (Molecular Devices, USA).

S. aureus ATCC 6538 [1] = system: S. aureus ATCC 6538
[2] = system: S. aureus MRSA ATCC 43300
[3] = system: S. epidermidis ATCC 14990
[4] = system: C. perfringens ATCC 13124
S. aureus ATCC 6538 [5] = experiment: inhibition zone assay; conditions: 10 μg peptide per hole, 37° C., 16-18 hours

## CC[C@H](C)[C@@H]1NC(=O)CNC(=O)CNC(=O)[C@H](Cc2ccccc2)NC(=O)[C@H](CCCCN)NC(=O)[C@@H]2CSSC[C@H](NC(=O)[C@H](CO)NC(=O)[C@H](Cc3c[nH]c4ccccc34)NC(=O)CN)C(=O)N[C@@H](CC(N)=O)C(=O)N[C@@H]([C@@H](C)CC)C(=O)N[C@@H](Cc3c[nH]c4ccccc34)C(=O)N[C@@H](CC(N)=O)C(=O)NCC(=O)N[C@@H](CC(N)=O)C(=O)N[C@@H](CC(=O)O)C(=O)N[C@@H](CCC(=O)O)C(=O)N3CCC[C@H]3C(=O)N[C@H]3CSSC[C@H](NC1=O)C(=O)N[C@@H](CCCCN)C(=O)N[C@H](C(=O)N[C@@H](Cc1ccc(O)cc1)C(=O)O)CSSC[C@H](NC(=O)[C@H](Cc1c[nH]cn1)NC(=O)[C@H](CCC(N)=O)NC(=O)[C@H](Cc1c[nH]cn1)NC3=O)C(=O)N[C@@H](CCCCN)C(=O)N[C@@H](CO)C(=O)N[C@@H]([C@@H](C)CC)C(=O)N[C@@H](CCCNC(=N)N)C(=O)NCC(=O)N[C@@H](Cc1ccc(O)cc1)C(=O)N[C@@H](CCCNC(=N)N)C(=O)NCC(=O)NCC(=O)N[C@@H](Cc1ccc(O)cc1)C(=O)N2 [HCN2016-01] (H-GWSCNIWNGNDEPCHQHCKSIRGYRGGYCKFGGICKCY-OH; disulfide 4-29, 14-35, 18-37 (inferred); N-terminus and C-terminus assumed)
Human erythrocytes
  cell lysis (hemolysis) of human erythrocytes: no significant lysis
S. aureus ATCC 6538 [1]; ATCC 6538
  Minimal inhibitory concentration (MIC): 0.30 µg/mL (≈ 0.0692 µM)
S. aureus ATCC 6538 [1]; S. aureus ATCC 6538
  activity against bacteria (in words): strong activity
S. aureus ATCC 6538 [1]; S. aureus ATCC 6538, lower MIC values
  antimicrobial activity compared to wild type hegrisin (in words): improved antimicrobial activity
[2]; ATCC 43300
  Minimal inhibitory concentration (MIC): 0.73 µg/mL (≈ 0.168 µM)
[2]; S. aureus MRSA ATCC 43300
  activity against bacteria (in words): strong activity
  antimicrobial activity compared to wild type hegrisin (in words): improved antimicrobial activity
[3]; ATCC 14990
  Minimal inhibitory concentration (MIC): 0.31 µg/mL (≈ 0.0715 µM)
[3]; S. epidermidis ATCC 14990
  activity against bacteria (in words): strong activity
  antimicrobial activity compared to wild type hegrisin (in words): improved antimicrobial activity
B. subtilis ATCC 6633; ATCC 6633
  Minimal inhibitory concentration (MIC): 0.50 µg/mL (≈ 0.115 µM)
B. subtilis ATCC 6633; B. subtilis ATCC 6633
  activity against bacteria (in words): strong activity
L. lactis ATCC 19256
  Minimal inhibitory concentration (MIC): 0.50 µg/mL (≈ 0.115 µM)
L. rhamnosus ATCC 14957
  Minimal inhibitory concentration (MIC): 32.0 µg/mL (≈ 7.38 µM)
L. plantarum ATCC 14917
  Minimal inhibitory concentration (MIC): 16.0 µg/mL (≈ 3.69 µM)
L. delbrueckii ATCC 9649; ATCC 9649
  Minimal inhibitory concentration (MIC): 8.0 µg/mL (≈ 1.85 µM)
L. delbrueckii ATCC 9649; L. delbrueckii ATCC 9649
  activity against bacteria (in words): strong activity
S. salivarius ATCC 19258; ATCC 19258
  Minimal inhibitory concentration (MIC): 4.0 µg/mL (≈ 0.923 µM)
S. salivarius ATCC 19258; S. salivarius ATCC 19258
  activity against bacteria (in words): strong activity
B. longum ATCC 15707; ATCC 15707
  Minimal inhibitory concentration (MIC): 8.0 µg/mL (≈ 1.85 µM)
B. longum ATCC 15707; B. longum ATCC 15707
  activity against bacteria (in words): strong activity
C. acnes ATCC 11827; ATCC 11827
  Minimal inhibitory concentration (MIC): 8.0 µg/mL (≈ 1.85 µM)
C. acnes ATCC 11827; C. acnes ATCC 11827
  activity against bacteria (in words): strong activity
[4]
  activity against bacteria (in words): strong activity
[4]; ATCC 13124
  Minimal inhibitory concentration (MIC): 6.81 µg/mL (≈ 1.57 µM)
L. casei ATCC 393
  Minimal inhibitory concentration (MIC): >500.0 µg/mL
E. coli ATCC 25922; ATCC 25922
  Minimal inhibitory concentration (MIC): >500.0 µg/mL
E. coli ATCC 25922; Gram negative bacteria E. coli
  activity against bacteria (in words): minimal or no activity
S. aureus ATCC 6538 [5]
  Activity (antimicrobial activity relative to unmodified hegrisin, zones of growth inhibition): 2
